Legend:
Format in all cases: in vivo
[1] = tested on: Kochia (Kochia scoparia); assay: Test A preemergence; settings: for Plant response rating, Kochia: 125 g ai/ha; for Kochia plant response rating (0 to 100 scale, 0 is no effect, 100 is complete control): visual injury approx. 10 d
Excerpt: (§1) Seeds of plant species selected from barnyardgrass (Echinochloa crus-galli), Kochia (Kochia scoparia), ragweed (common ragweed, Ambrosia elatior), ryegrass, Italian (Italian ryegrass, Lolium multiflorum), crabgrass, large (Digitaria sanguinalis), giant foxtail (Setaria faberii), green foxtail (Setaria viridis), morningglory (Ipomoea spp.), pigweed (Amaranthus retroflexus), velvetleaf (Abutilon theophrasti), wheat (Triticum aestivum), and corn (Zea mays) were planted into a blend of loam soil and sand and treated preemergence with a directed soil spray using test chemicals formulated in anon-phytotoxic solvent mixture which included a surfactant.
(§2) At the same time, plants selected from these crop and weed species and also blackgrass (Alopecurus myosuroides), and Galium (catchweed bedstraw, Galium aparine) were planted in pots containing the same blend of loam soil and sand and treated with postemergence applications of test chemicals formulated in the same manner. Plants ranged in height from 2 to 10 cm and were in the one- to two-leaf stage for the postemergence treatment. Treated plants and untreated controls were maintained in a greenhouse for approximately 10 d, after which time all treated plants were compared to untreated controls and visually evaluated for injury. Plant response ratings, summarized in Table A, are based on a 0 to 100 scale where 0 is no effect and 100 is complete control. A dash (-) response means no test result.

[2] = tested on: barnyardgrass (Echinochloa crus-galli); assay: Test A preemergence; settings: for Plant response rating, Barnyardgrass: 125 g ai/ha; for Barnyardgrass plant response rating (0 to 100 scale, 0 is no effect, 100 is complete control): visual injury approx. 10 d
Excerpt: as §1, §2

[3] = tested on: giant foxtail (Setaria faberii); assay: Test A preemergence; settings: for Plant response rating, Foxtail, Giant: 125 g ai/ha; for Foxtail, Giant plant response rating (0 to 100 scale, 0 is no effect, 100 is complete control): visual injury approx. 10 d
Excerpt: as §1, §2

[4] = tested on: pigweed (Amaranthus retroflexus); assay: Test A preemergence; settings: for Plant response rating, Pigweed: 125 g ai/ha; for Pigweed plant response rating (0 to 100 scale, 0 is no effect, 100 is complete control): visual injury approx. 10 d
Excerpt: as §1, §2

[5] = tested on: ragweed (common ragweed, Ambrosia elatior); assay: Test A preemergence; settings: for Plant response rating, Ragweed: 125 g ai/ha; for Ragweed plant response rating (0 to 100 scale, 0 is no effect, 100 is complete control): visual injury approx. 10 d
Excerpt: as §1, §2

[6] = tested on: ryegrass, Italian (Italian ryegrass, Lolium multiflorum); assay: Test A preemergence; settings: for Plant response rating, Ryegrass, Italian: 125 g ai/ha; for Ryegrass, Italian plant response rating (0 to 100 scale, 0 is no effect, 100 is complete control): visual injury approx. 10 d
Excerpt: as §1, §2

[7] = tested on: Galium (catchweed bedstraw, Galium aparine); assay: Test A postemergence; settings: for Galium plant response rating: visual injury rating on 0 to 100 scale (0 no effect, 100 complete control)
Method in brief: (§3)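 Seeds sprayed preemergence with a directed soil spray, or plants at 2 to 10 cm height and one- to two-leaf stage sprayed postemergence, with test chemicals in a non-phytotoxic solvent mixture containing surfactant, in loam soil–sand blend. Injury rated visually against untreated controls after about 10 d in greenhouse, 0 (no effect) to 100 (complete control).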

[8] = tested on: Kochia (Kochia scoparia); assay: Test A postemergence; settings: for Kochia plant response rating: visual injury rating on 0 to 100 scale (0 no effect, 100 complete control)
Method in brief: as §3

[9] = tested on: barnyardgrass (Echinochloa crus-galli); assay: Test A postemergence; settings: for Barnyardgrass plant response rating: visual injury rating on 0 to 100 scale (0 no effect, 100 complete control)
Method in brief: as §3

[10] = tested on: blackgrass (Alopecurus myosuroides); assay: Test A postemergence; settings: for Blackgrass plant response rating: visual injury rating on 0 to 100 scale (0 no effect, 100 complete control)
Method in brief: as §3

[11] = tested on: corn (Zea mays); assay: Test A postemergence; settings: for Corn plant response rating: visual injury rating on 0 to 100 scale (0 no effect, 100 complete control)
Method in brief: as §3

[12] = tested on: giant foxtail (Setaria faberii); assay: Test A postemergence; settings: for Foxtail, Giant plant response rating: visual injury rating on 0 to 100 scale (0 no effect, 100 complete control)
Method in brief: as §3

[13] = tested on: pigweed (Amaranthus retroflexus); assay: Test A postemergence; settings: for Pigweed plant response rating: visual injury rating on 0 to 100 scale (0 no effect, 100 complete control)
Method in brief: as §3

[14] = tested on: ragweed (common ragweed, Ambrosia elatior); assay: Test A postemergence; settings: for Ragweed plant response rating: visual injury rating on 0 to 100 scale (0 no effect, 100 complete control)
Method in brief: as §3

[15] = tested on: ryegrass, Italian (Italian ryegrass, Lolium multiflorum); assay: Test A postemergence; settings: for Ryegrass, Italian plant response rating: visual injury rating on 0 to 100 scale (0 no effect, 100 complete control)
Method in brief: as §3

[16] = tested on: wheat (Triticum aestivum); assay: Test A postemergence; settings: for Wheat plant response rating: visual injury rating on 0 to 100 scale (0 no effect, 100 complete control)
Method in brief: as §3

[17] = tested on: barnyardgrass (Echinochloa crus-galli); assay: Test B flooded paddy test; settings: Flood, 250 g ai/ha; 0 to 100 scale where 0 is no effect and 100 is complete control; 13 to 15 d
Experimental: (§4) Plant species in the flooded paddy test selected from rice (Oryra sativa), sedge, umbrella (small-flower umbrella sedge, Cyperus difformis), ducksalad (Heteranthera limosa), and barnyardgrass (Echinochloa crus-galli) were grown to the 2-leaf stage for testing. At time of treatment, test pots were flooded to 3 cm above the soil surface, treated by application of test compounds directly to the paddy water, and then maintained at that water depth for the duration of the test. Treated plants and controls were maintained in a greenhouse for 13 to 15 d, after which time all species were compared to controls and visually evaluated. Plant response ratings, summarized in Table B, are based on a scale of 0 to 100 where 0 is no effect and 100 is complete control. A dash (-) response means no test result.

[18] = tested on: ducksalad (Heteranthera limosa); assay: Test B flooded paddy test; settings: Flood, 250 g ai/ha; 0 to 100 scale where 0 is no effect and 100 is complete control; 13 to 15 d
Experimental: as §4

[19] = tested on: rice (Oryra sativa); assay: Test B flooded paddy test; settings: Flood, 250 g ai/ha; 0 to 100 scale where 0 is no effect and 100 is complete control; 13 to 15 d
Experimental: as §4

[20] = tested on: sedge, umbrella (small-flower umbrella sedge, Cyperus difformis); assay: Test B flooded paddy test; settings: Flood, 250 g ai/ha; 0 to 100 scale where 0 is no effect and 100 is complete control; 13 to 15 d
Experimental: as §4

[21] = preemergence, 0 to 100 scale (0 no effect, 100 complete control)
[22] = Preemergence, 500 g ai/ha, 0 is no effect, 100 is complete control
[23] = 500 g ai/ha, postemergence, 0 to 100 scale, 0 no effect, 100 complete control
[24] = Postemergence, 125 g ai/ha, visual injury, 0 to 100 scale (0 no effect, 100 complete control), approx. 10 d
[25] = Preemergence, visual injury after approximately 10 d, 0 to 100 scale where 0 is no effect and 100 is complete control
[26] = 125 g ai/ha, postemergence, approx. 10 d
[27] = Postemergence, 500 g ai/ha, 0 to 100 scale where 0 is no effect and 100 is complete control

O=C1NCC(c2ccccc2-c2ccccc2)C1C(=O)Nc1cccc(F)c1F (racemic) [Compound 379]
40: Foxtail, Giant plant response rating (0 to 100 scale) [3, 22]
50: Plant response rating, Barnyardgrass [9, 23]
30: Barnyardgrass plant response rating (0 to 100 scale) [2, 22]
0: Plant response rating, Kochia [1, 21] | Kochia plant response rating (0 to 100 scale) [1, 22] | Plant response rating, Barnyardgrass [2, 21] | Plant response rating, Foxtail, Giant [3, 21] | Plant response rating, Pigweed [4, 21] | Pigweed plant response rating (0 to 100 scale) [4, 22] | Plant response rating, Ragweed [5, 21] | Ragweed plant response rating (0 to 100 scale) [5, 22] | Plant response rating, Ryegrass, Italian [6, 21] | Ryegrass, Italian plant response rating (0 to 100 scale) [6, 22] | Plant response rating, Galium [7, 23] | Plant response rating, Galium [7, 24] | Plant response rating, Kochia [8, 23] | Plant response rating, Kochia [8, 24] | Plant response rating, Barnyardgrass [9, 24] | Plant response rating, Blackgrass [10, 23] | Plant response rating, Blackgrass [10, 24] | Plant response rating, Corn [11, 23] | Plant response rating, Corn [11, 24] | Plant response rating, Foxtail, Giant [12, 24] | Plant response rating, Pigweed [13, 23] | Plant response rating, Pigweed [13, 24] | Plant response rating, Ragweed [14, 23] | Plant response rating, Ragweed [14, 24] | Plant response rating, Ryegrass, Italian [15, 23] | Plant response rating, Ryegrass, Italian [15, 24] | Plant response rating, Wheat [16, 23] | Plant response rating, Wheat [16, 24] | Plant response rating, Barnyardgrass [17] | Plant response rating, Ducksalad [18] | Plant response rating, Rice [19] | Plant response rating, Sedge, Umbrella [20]
20: Plant response rating, Foxtail, Giant [12, 23]

CS(=O)(=O)c1ccccc1NC(=O)C1C(=O)NCC1c1ccc(C2CC2)cc1 (racemic) [Compound 502]
80: Plant response rating, Foxtail, Giant [3, 25]
70: Kochia plant response rating (0 to 100 scale, 0 is no effect, 100 is complete control) ([1]; Preemergence, 500 g ai/ha) | Plant response rating, Ducksalad [18]
90: Foxtail, Giant plant response rating (0 to 100 scale, 0 is no effect, 100 is complete control) ([3]; Preemergence, 500 g ai/ha)
20: Galium plant response rating [7, 26] | Plant response rating, Kochia [8, 27] | Plant response rating, Blackgrass [10, 27] | Foxtail, Giant plant response rating [12, 26]
0: Plant response rating, Kochia [1, 25] | Plant response rating, Barnyardgrass [2, 25] | Plant response rating, Pigweed [4, 25] | Plant response rating, Ragweed [5, 25] | Plant response rating, Ryegrass, Italian [6, 25] | Kochia plant response rating [8, 26] | Barnyardgrass plant response rating [9, 26] | Blackgrass plant response rating [10, 26] | Corn plant response rating [11, 26] | Pigweed plant response rating [13, 26] | Plant response rating, Pigweed [13, 27] | Ragweed plant response rating [14, 26] | Plant response rating, Ragweed [14, 27] | Ryegrass, Italian plant response rating [15, 26] | Wheat plant response rating [16, 26] | Plant response rating, Wheat [16, 27] | Plant response rating, Barnyardgrass [17] | Plant response rating, Rice [19] | Plant response rating, Sedge, Umbrella [20]
50: Ragweed plant response rating (0 to 100 scale, 0 is no effect, 100 is complete control) ([5]; Preemergence, 500 g ai/ha) | Plant response rating, Galium [7, 27] | Plant response rating, Foxtail, Giant [12, 27]
30: Pigweed plant response rating (0 to 100 scale, 0 is no effect, 100 is complete control) ([4]; Preemergence, 500 g ai/ha) | Ryegrass, Italian plant response rating (0 to 100 scale, 0 is no effect, 100 is complete control) ([6]; Preemergence, 500 g ai/ha) | Plant response rating, Corn [11, 27] | Plant response rating, Ryegrass, Italian [15, 27]
60: Barnyardgrass plant response rating (0 to 100 scale, 0 is no effect, 100 is complete control) ([2]; Preemergence, 500 g ai/ha) | Plant response rating, Barnyardgrass [9, 27]

O=C1NCC(c2ccc(C(F)(F)F)c(F)c2)C1C(=O)Nc1cccc(F)c1F (racemic) [Compound 504]
30: Kochia plant response rating [8, 26] | Ragweed plant response rating [14, 26]
0: Plant response rating, Rice [19] | Plant response rating, Sedge, Umbrella [20]
100: Pigweed plant response rating (0 to 100 scale, 0 is no effect, 100 is complete control) ([4]; Preemergence, 500 g ai/ha)
60: Plant response rating, Kochia [8, 27] | Plant response rating, Blackgrass [10, 27] | Pigweed plant response rating [13, 26] | Plant response rating, Wheat [16, 27]
80: Plant response rating, Kochia [1, 25] | Kochia plant response rating (0 to 100 scale, 0 is no effect, 100 is complete control) ([1]; Preemergence, 500 g ai/ha) | Plant response rating, Pigweed [4, 25] | Barnyardgrass plant response rating [9, 26] | Plant response rating, Ducksalad [18]
20: Wheat plant response rating [16, 26]
50: Ragweed plant response rating (0 to 100 scale, 0 is no effect, 100 is complete control) ([5]; Preemergence, 500 g ai/ha)
40: Plant response rating, Ragweed [5, 25] | Plant response rating, Ryegrass, Italian [6, 25] | Blackgrass plant response rating [10, 26] | Plant response rating, Ragweed [14, 27] | Ryegrass, Italian plant response rating [15, 26] | Plant response rating, Ryegrass, Italian [15, 27] | Plant response rating, Barnyardgrass [17]
70: Ryegrass, Italian plant response rating (0 to 100 scale, 0 is no effect, 100 is complete control) ([6]; Preemergence, 500 g ai/ha) | Galium plant response rating [7, 26] | Plant response rating, Galium [7, 27] | Corn plant response rating [11, 26] | Plant response rating, Corn [11, 27] | Plant response rating, Pigweed [13, 27]
90: Plant response rating, Barnyardgrass [2, 25] | Barnyardgrass plant response rating (0 to 100 scale, 0 is no effect, 100 is complete control) ([2]; Preemergence, 500 g ai/ha) | Plant response rating, Foxtail, Giant [3, 25] | Foxtail, Giant plant response rating (0 to 100 scale, 0 is no effect, 100 is complete control) ([3]; Preemergence, 500 g ai/ha) | Plant response rating, Barnyardgrass [9, 27] | Foxtail, Giant plant response rating [12, 26] | Plant response rating, Foxtail, Giant [12, 27]
